One series deals with Vero cells. The series is described as follows: Cytotoxicity test (MTT). It is filed as cell-based. The note with it: Chlorocebus sabaeus.
The test system of series [1] is mitochondrial protein synthesis. Nature of the series: Activity of inhibiting mitochondrial protein synthesis. Format: biochemical. The note with it: for IC50: mitochondrial protein synthesis inhibition, Table 3. The protocol: The experimental steps were carried out according to the literature (Antimicrobial Agents and Chemotherapy, 2006, 50 (6), 2042-2049).
Series [2] concerns Mycobacterium tuberculosis H37Rv. The series is described as follows: Anti-tuberculosis activity test in vitro (Microplate Alamar Blue Assay, MABA). It is filed as cell-based.
The mark [3] stands for this setting: M. tuberculosis H37Rv, MABA, 7H9 medium, method says MIC90 was calculated, read-out: MIC.
The mark [4] stands for this setting: Vero cells, MTT, 48 hours of incubation, highest concentration 64 μg/mL, read-out: IC50.

The values below come from patent US11332477B2, “Nitrogen containing heterocycle substituted benzoxazine oxazolidinone compound and preparation method and use thereof” (INSTITUTE OF MATERIA MEDICA, CHINESE ACADEMY OF MEDICAL …, priority 2017, dated 2022).

pIC50: −log10 of the molar value. Converted amounts (≈) assume the structure as drawn. Like-named read-outs stand apart in the source and are kept apart here.

In general, IC50 refers to the concentration that inhibits the measured activity by half. As usually defined, the melting point is the temperature, or range, at which the solid turns liquid. As a reminder, the pIC50 is −log10 of the IC50, conventionally taken in molar units. By MIC is commonly meant the lowest concentration that inhibits growth of the organism.

Turning to `CC(C)C(=O)NC[C@@H]1OC(=O)N2c3cc(F)c(N4C5CCC4CSC5)cc3OC[C@@H]12` [Compound 15], the melting point fell in the range of 164 to 165 °C. Moreover, the IC50 with Vero cells (Vero, 48 h) is greater than 64 µg/mL.
In series [1], `CC(=O)NC[C@@H]1OC(=O)N2c3ccc(N4CCOCC4)cc3OC[C@@H]12` [Compound VII, reference compound] returned an IC50 of 35.82 µg/mL. Also, the pIC50 in series [1] (read-out: IC50 value of mitochondrial protein synthesis inhibition) is 4.45. For the same compound, in series [2] (setting [3]), the MIC is 1.55 µg/mL (≈ 4.45 µM).
`CNC[C@@H]1OC(=O)N2c3cc(F)c(N4CCSCC4)cc3OC[C@@H]12` [Compound 2, (3S,3aS)-8-Fluoro-3-((methylamino)methyl)-7-thiomorpholino-3a,4-dihydro-1H,3H-benzo[b]oxazolo[3,4-d][1,4]oxazin-1-one] returned a melting point of 155 to 156 °C. The IC50 in the series with Vero cells (setting [4]) stood at 46.5 µg/mL (≈ 132 µM).
In turn, `O=C(NC[C@@H]1OC(=O)N2c3cc(F)c(N4[C@@H]5CC[C@H]4CSC5)cc3OC[C@@H]12)c1ccncc1` [Compound 20, N-(((3S,3aS)-7-((1R,5S)-3-thia-8-azabicyclo[3.2.1]octan-8-yl)-8-fluoro-1-oxo-3a,4-dihydro-1H,3H-benzo[b]oxazolo[3,4-d][1,4]oxazin-3-yl)methyl)isonicotinamide] yielded a melting point of 149 to 150 °C. Further, the IC50 in the series on Vero cells (Vero, 48 h) was greater than 64 µg/mL.
For `O=C1O[C@@H](CNc2ccon2)[C@@H]2COc3cc(N4[C@@H]5CC[C@H]4CSC5)c(F)cc3N12` [Compound 19, (3S,3aS)-7-((1R,5S)-3-thia-8-azabicyclo[3.2.1]octan-8-yl)-8-fluoro-3-((isoxazol-3-ylamino)methyl)-3a,4-dihydro-1H,3H-benzo[b]oxazolo[3,4-d][1,4]oxazin-1-one] the same measures were 180 to 182 °C and greater than 64 µg/mL.
`O=C(NC[C@@H]1OC(=O)N2c3cc(F)c(N4[C@@H]5CC[C@H]4CSC5)cc3OC[C@@H]12)C1CC1` [Compound 16, N-(((3S,3aS)-7-((1R,5S)-3-thia-8-azabicyclo[3.2.1]octan-8-yl)-8-fluoro-1-oxo-3a,4-dihydro-1H,3H-benzo[b]oxazolo[3,4-d][1,4]oxazin-3-yl)methyl)cyclopropanecarboxamide] came in with a melting point of 169 to 171 °C. In the series on Vero cells (Vero, 48 h), the IC50 was greater than 64 µg/mL. The compound further returned an MIC in series [2] (H37RV) of 0.976 µg/mL (≈ 2.25 µM).
In turn, `COC(=O)NC[C@H]1OC(=O)N2c3cc(F)c(N4CCSCC4)cc3OC[C@H]12` [Compound 30, Methyl (((3R,3aR)-8-fluoro-1-oxo-7-thiomorpholino-3a,4-dihydro-1H,3H-benzo[b]oxazolo[3,4-d][l, 4]oxazin-3-yl)methyl)carbamate] yielded a melting point of 158 to 160 °C. For the same compound, the IC50 with Vero cells (setting [4]) is greater than 64 µg/mL. Besides, the MIC in series [2] (setting [3]) is 0.208 µg/mL (≈ 0.523 µM).
In series [1], `CC(=O)NC[C@H]1CN(c2ccc(N3CCOCC3)c(F)c2)C(=O)O1` [Linezolid, reference compound] displayed an IC50 of 8.71 µg/mL. For the same compound, the MIC in series [2] (setting [3]) is 0.294 µg/mL (≈ 0.871 µM).
In the case of `O=C1O[C@@H](CNC2COC2)[C@@H]2COc3cc(N4CCSCC4)c(F)cc3N12` [Compound 36, (3S,3aS)-8-Fluoro-3-((oxetan-3-ylamino)methyl)-7-thiomorpholino-3a,4-dihydro-1H,3H-benzo[b]oxazolo[3,4-d][1,4]oxazin-1-one], the melting point lay within 162 to 164 °C. In addition, in the series on Vero cells (setting [4]), the IC50 is greater than 64 µg/mL. Moreover, the MIC in series [2] (setting [3]) is 0.237 µg/mL (≈ 0.599 µM).
In turn, `CS(=O)(=O)NC[C@@H]1OC(=O)N2c3cc(F)c(N4CCSCC4)cc3OC[C@@H]12` [Compound 3, N-(((3S,3aS)-8-Fluoro-1-oxo-7-thiomorpholino-3a,4-dihydro-1H,3H-benzo[b]oxazolo[3,4-d][1,4]oxazin-3-yl)methyl)methanesulfonamide] returned a melting point of 234 to 235 °C. Further, the IC50 in the series on Vero cells (setting [4]) was greater than 64 µg/mL.
Compound `CC(=O)NC[C@@H]1OC(=O)N2c3cc(F)c(N4CC5(COC5)C4)cc3OC[C@@H]12` [Compound 24, N-(((3S,3aS)-8-Fluoro-1-oxo-7-(2-oxa-6-azaspiro[3.3]heptan-6-yl)-3a,4-dihydro-1H,3H-benzo[b]oxazolo[3,4-d][1,4]oxazin-3-yl)methyl)acetamide] gave a melting point of 105 to 107 °C. The IC50 with Vero cells (setting [4]) is greater than 64 µg/mL.
`O=C1O[C@@H](Cn2ccnn2)[C@@H]2COc3cc(N4CC5(COC5)C4)c(F)cc3N12` [Compound 27, (3S,3aS)-3-((1H-1,2,3-Triazol-1-yl)methyl)-8-fluoro-7-(2-oxa-6-azaspiro[3.3]heptan-6-y 1)-3a,4-dihydro-1H,3H-benzo[b]oxazolo[3,4-d][1,4]oxazin-1-one] showed a melting point of 219 to 221 °C. Further, in the series on Vero cells (setting [4]), the IC50 was greater than 64 µg/mL.
For the compound `O=C(NC[C@@H]1OC(=O)N2c3cc(F)c(N4CC5(COC5)C4)cc3OC[C@@H]12)C1CCC1` [Compound 26, N-(((3S,3aS)-8-Fluoro-1-oxo-7-(2-oxa-6-azaspiro[3.3]heptan-6-yl)-3a,4-dihydro-1H,3H-benzo[b]oxazolo[3,4-d][1,4]oxazin-3-yl)methyl)cyclobutanecarboxamide], the melting point lay within 118 to 120 °C. The IC50 in the series with Vero cells (setting [4]) is greater than 64 µg/mL.
`O=C(NC[C@@H]1OC(=O)N2c3cc(F)c(N4C5CCC4CSC5)cc3OC[C@@H]12)c1cnccn1` gave a melting point greater than 250 °C.
As for `O=C(NC[C@@H]1OC(=O)N2c3cc(F)c(N4CC5(COC5)C4)cc3OC[C@@H]12)C1CC1` [Compound 25, N-(((3S,3aS)-8-Fluoro-1-oxo-7-(2-oxa-6-azaspiro[3.3]heptan-6-yl)-3a,4-dihydro-1H,3H-benzo[b]oxazolo[3,4-d][1,4]oxazin-3-yl)methyl)cyclopropanecarboxamide], the melting point is 181 to 183 °C. In addition, the IC50 in the series on Vero cells (setting [4]) was greater than 64 µg/mL.
In turn, `O=C(NC[C@@H]1OC(=O)N2c3cc(F)c(N4CCSCC4)cc3OC[C@@H]12)C(F)F` [Compound 33, 2,2-Difluoro-N-(((3S,3aS)-8-fluoro-1-oxo-7-thiomorpholino-3a,4-dihydro-1H,3H-benzo [b]oxazolo[3,4-d][1,4]oxazin-3-yl)methyl)acetamide] yielded a melting point of 200 to 202 °C. In addition, the IC50 in the series with Vero cells (setting [4]) amounted to 61.6 µg/mL (≈ 148 µM). In series [2] (setting [3]), the MIC was 0.1 µg/mL (≈ 0.24 µM).
As to `CC(=O)NC[C@H]1CN(c2ccc(N3CCSCC3)c(F)c2)C(=O)O1` [Sutezolid, reference compound], the IC50 in series [1] is 7.98 µg/mL. For the same compound, the MIC in series [2] (setting [3]) is 0.078 µg/mL (≈ 0.221 µM).
With `O=C(NC[C@@H]1OC(=O)N2c3cc(F)c(N4[C@@H]5CC[C@H]4CSC5)cc3OC[C@@H]12)C1CCC1` [Compound 17, N-(((3S,3aS)-7-((1R,5S)-3-thia-8-azabicyclo[3.2.1]octan-8-yl)-8-fluoro-1-oxo-3a,4-dihydro-1H,3H-benzo[b]oxazolo[3,4-d][1,4]oxazin-3-yl)methyl)cyclobutanecarboxamide], the melting point fell in the range of 195 to 196 °C. In the series with Vero cells (Vero, 48 h), this compound had an IC50 of 34.7 µg/mL (≈ 77.5 µM). The MIC in series [2] (H37RV) amounted to 0.974 µg/mL (≈ 2.18 µM).
In the case of `CC(=O)NC[C@@H]1OC(=O)N2c3cc(F)c(N4CCS(=O)(=O)CC4)cc3OC[C@@H]12` [Compound 35, N-(((3S,3aS)-7-(1,1-dioxidothiomorpholino)-8-fluoro-1-oxo-3a,4-dihydro-1H,3H-benzo [b]oxazolo[3,4-d][1,4]oxazin-3-yl)methyl)acetamide], the melting point was in the range of 226 to 228 °C. Moreover, the IC50 with Vero cells (setting [4]) was greater than 64 µg/mL. Besides, the MIC in series [2] (setting [3]) is 0.48 µg/mL (≈ 1.16 µM).
As to `O=C1O[C@@H](Cn2ccnn2)[C@@H]2COc3cc(N4[C@@H]5CC[C@H]4CSC5)c(F)cc3N12` [Compound 22, (3S,3aS)-3-((1H-1,2,3-Triazol-1-yl)methyl)-7-((1R,5S)-3-thia-8-azabicyclo[3.2.1]octan-8-yl)-8-fluoro-3a,4-dihydro-1H,3H-benzo[b]oxazolo[3,4-d][1,4]oxazin-1-one], the melting point lay within 225 to 227 °C. This compound displayed an IC50 with Vero cells (Vero, 48 h) greater than 64 µg/mL.
For `CC(=O)NC[C@@H]1OC(=O)N2c3cc(F)c(N4CCC(F)(F)CC4)cc3OC[C@@H]12` [Compound 32, N-(((3S,3aS)-7-(4,4-Difluoropiperidin-1-yl)-8-fluoro-1-oxo-3a,4-dihydro-1H,3H-benzo[b]oxazolo[3,4-d][1,4]oxazin-3-yl)methyl)acetamide], the melting point lay within 230 to 232 °C. Besides, in the series with Vero cells (setting [4]), the IC50 is greater than 64 µg/mL. For the same compound, the MIC in series [2] (setting [3]) is 0.908 µg/mL (≈ 2.27 µM).
`CC(=O)NC[C@@H]1OC(=O)N2c3cc(F)c(N4[C@@H]5CC[C@H]4CSC5)cc3OC[C@@H]12` [Compound 14, N-(((3S,3aS)-7-((1R,5S)-3-thia-8-azabicyclo[3.2.1]octan-8-yl)-8-fluoro-1-oxo-3a,4-dihydro-1H,3H-benzo[b]oxazolo[3,4-d][1,4]oxazin-3-yl)methyl)acetamide] displayed a melting point of 235 to 236 °C. Besides, in the series on Vero cells (Vero, 48 h), inhibition was half-maximal at 58.5 µg/mL (≈ 144 µM) (IC50). In series [2] (H37RV), the MIC turned out to be 0.918 µg/mL (≈ 2.25 µM).
As for `NC[C@@H]1OC(=O)N2c3cc(F)c(N4[C@@H]5CC[C@H]4CSC5)cc3OC[C@@H]12` [Compound 13, (3S,3aS)-3-(Aminomethyl)-7-((1R,5S)-3-thia-8-azabicyclo[3.2.1]octan-8-yl)-8-fluoro-3a,4-dihydro-1H,3H-benzo[b]oxazolo[3,4-d][1,4]oxazin-1-one], the melting point was 168 to 169 °C. Further, the MIC in series [2] (H37RV) was 0.609 µg/mL (≈ 1.67 µM).
In the case of `O=C(NC[C@@H]1OC(=O)N2c3cc(F)c(N4CC[S+]([O-])CC4)cc3OC[C@@H]12)C(F)F` [Compound 34, 2,2-Difluoro-N-(((3S,3aS)-8-fluoro-7-(1-oxidothiomorpholino)-1-oxo-3a,4-dihydro-1H, 3H-benzo[b]oxazolo[3,4-d][1,4]oxazin-3-yl)methyl)acetamide], the melting point was 190 to 192 °C. Also, in the series on Vero cells (setting [4]), the half-inhibitory concentration (IC50) was greater than 64 µg/mL. Also, in series [2] (setting [3]), the MIC was 0.492 µg/mL (≈ 1.14 µM).
Compound `COC(=O)NC[C@@H]1OC(=O)N2c3cc(F)c(N4[C@@H]5CC[C@H]4CSC5)cc3OC[C@@H]12` [Compound 18, Methyl (((3S,3aS)-7-((1R,5S)-3-thia-8-azabicyclo[3.2.1]octan-8-yl)-8-fluoro-1-oxo-3a,4-dihydro-1H,3H-benzo[b]oxazolo[3,4-d][1,4]oxazin-3-yl)methyl)carbamate] returned a melting point of 149 to 151 °C. Besides, the IC50 in the series on Vero cells (Vero, 48 h) was greater than 64 µg/mL.
